Data on two molecules can be found in patent US6107549A, “Genetically engineered plant resistance to thiazopyr and other pyridine herbicides” (Monsanto Company, priority 1999, dated 2000).

One data set deals with pyridine-esterase. The class given is biochemical, rabbit. The method, then:
(§1) Esterase activity assays. Esterase activity was measured in vitro by conversion of either [^14 C]thiazopyr or [^14 C]MON 14300 to their corresponding monoacid. Pyridine-esterase activity was assayed during protein purification and from tissue extracts of transgenic plants. The homogenizing buffer for plant tissues consisted of 100 mM Tris pH 8.0, 1 mM EDTA, 1 mM DTT, and 10% glycerol in water. Plant tissues (1 g/ml buffer) including leaves, seeds, flowers, seedlings, etc. were homogenized in conical centrifuge tubes using a spinning pestle at 4° C. Following centrifugation (12,000× g), the supernatant (250 μl) was assayed immediately for esterase activity by incubation with [^14 C]thiazopyr or [^14 C]MON 14300 (4 μg) in 0.1 M Tris pH 8.0 buffer (50 μl) at 37° C. The reaction was sampled (100 μL) at various times (0.5 to 100 hr) to generate a kinetic profile of monoacid formation. The reaction was stopped by addition of 1% trifluoroacetic acid in acetonitrile (v/v, 150 μl). Following centrifugation (12,000× g for 3 min), the supernatant was analyzed by HPLC/RAD (radioactivity detection) to resolve the monoacid from the parent herbicide and other metabolites. Control reactions in the absence of the esterase recovered un-reacted thiazopyr or MON 14300 for the duration of experiments. Esterase activity was also assayed during protein purification following a similar procedure except a single time-point (1-2 hrs) of incubation was selected within the linear range of reaction. In vitro assays also employed three commonly used calorimetric (p-nitrophenyl butyrate) or fluorescent (4-methyl umbelliferyl butyrate and 5-bromo-4-chloro-3-indolylacetate) substrates. These substrates are useful in rapidly and qualitatively detecting general esterase activity.
Tissue extracts from 3 tobacco R1 seedlings were employed for further studies. Two of the lines (#37437 and #37432) expressed high levels of esterase (~0.5%) and one line (#37436) which expressed no pyridine-esterase was used as negative control. Tissue extracts were incubated with [^14 C]MON 14300 and formation of the monoacid monitored with time. […] In comparison, less that 2% monoacid was detected in line (#37436). […] First, pyridine-esterase was capable of driving the hydrolysis reaction to completion with no apparent product inhibition, and second, there was no endogenous esterase activity in tobacco which catalyzed MON 14300 hydrolysis.

Another data set deals with tomato seedlings. The settings on record: in vivo. The method, then: Esterase activity was also monitored in plants. [^14 C]Thiazopyr or [^14 C]MON 14300 (1-4 μg in acetonitrile) was applied directly to shoots and cotyledons of young seedlings. After 2 days in a growth chamber, tobacco or tomato seedlings were washed with methanol and water, then homogenized (TISSUMIZER™, Tekmar-Dohrmann, Cincinnatti, Ohio) in 5% (v/v) trifluoroacetic acid in acetonitrile (fresh w/v ratio of 2/1). Homogenates were clarified by centrifugation (12,000× g) and supernatants analyzed by HPLC/RAD for the formation of the monoacid metabolite.
MON 14300 was applied to the shoot of 2-day old seedlings. Two days after treatment, seedlings were washed with methanol and tissue extracts analyzed by HPLC. The HPLC chromatograms show signals from both the UV254 nm (upper trace, FIG. 5) and radioactivity (lower trace, FIG. 5) detectors. For the purpose of metabolite identification, plant extracts were co-injected with a mixture of authentic standards visible under UV detection. […] In both transgenic lines, small levels of more polar products, presumably from further degradation of the monoacid as reported by McClanahan et al. (1995), were detected near the solvent front.

A further data set deals with tomato. Kind of data set: Growth chamber assay, pre-emergence application. The class given is in vivo. The settings on record: PE. The method, then: Growth chamber and greenhouse assay for resistance. Pyridine herbicide resistance in transgenic tomato expressing RLE3 was examined in soil with pre-emergence (PE) applications of thiazopyr. Tomato seeds (R1 of #8255 and #8256, and control UC82B) were planted in 100 cm^2 pots (12 seeds per pot) in artificial METROMIX™ soil at a depth of 0.5 cm. Pots were watered and oversprayed with a 50% acetone/water solution (2 ml) containing thiazopyr at use rates of 0, 34, 67, 140, and 280 g/ha (grams per hectare). Pots were placed in a growth chamber (12 hr photoperiod; 60% humidity, 25° C. night/29° C. day; 600 μE light) with daily watering by subirrigation.

The next data set deals with T1, RLE1 (Oryctolagus cuniculus, UniProt P12337).
T1 construct: tissue Professor J. Ozols; host or cells: rabbit liver
T1 sequence (P12337 19-565): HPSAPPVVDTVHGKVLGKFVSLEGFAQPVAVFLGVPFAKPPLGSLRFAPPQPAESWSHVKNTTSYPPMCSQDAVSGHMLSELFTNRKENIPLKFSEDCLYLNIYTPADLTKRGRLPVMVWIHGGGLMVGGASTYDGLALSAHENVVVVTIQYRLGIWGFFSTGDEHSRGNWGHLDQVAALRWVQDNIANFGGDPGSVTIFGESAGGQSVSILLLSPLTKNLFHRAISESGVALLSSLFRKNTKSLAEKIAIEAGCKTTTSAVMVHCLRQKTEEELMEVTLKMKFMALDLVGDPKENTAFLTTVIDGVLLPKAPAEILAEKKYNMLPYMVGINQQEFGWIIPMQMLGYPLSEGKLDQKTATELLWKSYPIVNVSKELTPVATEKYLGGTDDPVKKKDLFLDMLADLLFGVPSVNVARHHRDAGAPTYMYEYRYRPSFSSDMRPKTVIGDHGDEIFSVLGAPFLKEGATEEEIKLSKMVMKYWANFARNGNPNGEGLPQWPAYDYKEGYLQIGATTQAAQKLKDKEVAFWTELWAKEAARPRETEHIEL
Kind of data set: Thiazopyr hydrolysis by RLE1 preparation from Prof. Ozols. Particulars: purified RLE1 preparation from Prof. Ozols. The format is biochemical, rabbit. The method, then:
as §1, with “Esterase activity was also assayed during protein purification following a similar procedure except a single time-point (1-2 hrs) of incubation was selected within the linear range of reaction. In vitro assays also employed three commonly used calorimetric (p-nitrophenyl butyrate) or fluorescent (4-methyl umbelliferyl butyrate and 5-bromo-4-chloro-3-indolylacetate) substrates. These substrates are useful in rapidly and qualitatively detecting general esterase activity.” left out

Some results are limits rather than exact numbers.

For the molecule `COC(=O)c1c(C(F)F)nc(C(F)(F)F)c(C(=O)n2cccn2)c1CC(C)C` [MON 14300], the “hydrolysis to monoacid metabolite” value in the data set on pyridine-esterase (non-expressing line #37436, FIG. 3) is listed as “no hydrolysis”. The same molecule had a monoacid detected in the data set with pyridine-esterase (tobacco, seedling tissue extract) of less than 2%. Besides, the metabolism in plants entry in the data set with tomato seedlings was “little to no metabolism in plants”. For the same molecule, in the data set on tomato seedlings (tomato, 48 h), the monoacid in residue came to 2.5% and the “parent as primary residue” value stood at 90.8%.

On to `COC(=O)c1c(C(F)F)nc(C(F)(F)F)c(C2=NCCS2)c1CC(C)C` [thiazopyr], for which the “difference in vegetative growth between UC82B and #8256” value with tomato (34 g/ha) is “no detectable difference in vegetative growth”. In addition, the stunting result in the data set on tomato (UC82B control, 67 g/ha) is on record as “about 20%”; in the data set on tomato (transgenic #8256, 67 g/ha), “none”. The growth and survival result in the data set on tomato (UC82B control, 140 g/ha) was “never grew beyond the cotyledon stage and eventually all died”; in the data set with tomato (transgenic #8256, 140 g/ha) it was “numerous healthy seedlings that were stunted but otherwise normal”. The “resistant seedlings out of 12 to 16 seeds” value with tomato (transgenic R1, 140 and 280 g/ha) is recorded as “approximately 4”. In the data set with tomato (transgenic plants, 140 and 280 g/ha), the “effect on flower development, fruit set, and seed production” value was “no effect”. Also, the figures for the thiazopyr hydrolytic activity entry on RLE1 and on RLE1 (listed as Thiazopyr) were “demonstrated thiazopyr hydrolysis” and “could be demonstrated with RLE1”, respectively.
